With `COCCc1nc2c(N)nc3c(c2n1CCOCCN(C)C(=O)c1ccccc1)CCCC3` [Example 10, N-(2-{2-[4-amino-2-(2-methoxyethyl)-6,7,8,9-tetrahydro-1H-imidazo[4,5-c]quinolin-1-yl]ethoxy}ethyl)-N-methylbenzamide], the melting point was 83 to 87 °C. As for `CCc1nc2c(N)nc3ccccc3c2n1CCOCCNC(=O)c1ccccc1` [Example 71, N-{2-[2-(4-amino-2-ethyl-1H-imidazo[4,5-c]quinolin-1-yl)ethoxy]ethyl}benzamide], the melting point fell in the range of 188 to 191 °C.

For `CCOCc1nc2c(N)nc3ccccc3c2n1CCOCCNC(=O)c1ccccc1` [Example 72, N-(2-{2-[4-amino-2-(ethoxymethyl)-1H-imidazo[4,5-c]quinolin-1-yl]ethoxy}ethyl)benzamide], the melting point was in the range of 154 to 156 °C.

As a reminder, the melting point is the temperature, or range, at which the solid turns liquid.

The values above are taken from patent publication US7115622B2, “Amido ether substituted imidazoquinolines” (3M Innovative Properties Company, priority 2000, dated 2006).
